These results are taken from ChEMBL document CHEMBL3507680, “University of Dundee, Gates Library screen for HepG2 cell viability”.

This data set in a line: Human HepG2 cell viability assay in 384 well format. Details: dose 125 nL, time 70.5 hour; concentration not given beside the values. As to conditions: HepG2 cells, read-out: Inhibition. Type of data set: toxicity, cell-based.
Regarding `O=C(NCCN1CCOCC1)c1cc(-c2ccccc2Cl)[nH]n1`, the cytotoxicity at 70.5 h was 1.45%.

On to `Cc1ccc(-c2cc(C(=O)NCCN3CCOCC3)n[nH]2)s1`, for which the cytotoxicity at 70.5 h is -3.46%.

As for `NC(=O)c1cnc(NC2CCN(C(=O)C3CC3)CC2)c(Cl)c1`, the cytotoxicity at 70.5 h was -0.537%.

Consider `Cc1cccc(C(=O)NCC2CCS(=O)(=O)C2)n1` (stereo not drawn), for which the cytotoxicity at 70.5 h is -1.5%.

Regarding `CCc1ncncc1C(=O)NCCNS(=O)(=O)c1ccc(C)cc1`, the cytotoxicity at 70.5 h was -1.77%.

For `O=C(NCCN1CCOCC1)NCc1ccccc1-n1cccn1`, the cytotoxicity at 70.5 h is -0.678%.

Consider `CC(C)(C)n1ncc2c(=O)[nH]c(N3CCN(CC(F)F)CC3)nc21`, for which the cytotoxicity at 70.5 h is -4.17%.

Take `Cc1cnc2c(S(=O)(=O)NC(=O)C(C)OCC3CC3)cccc2c1` (stereo not drawn): the cytotoxicity at 70.5 h is -0.0884%.

On to `Cc1nnc(NCC(c2ccco2)N2CCCCC2)c(C#N)c1C` (stereo not drawn), for which the cytotoxicity at 70.5 h was -0.616%.

With `Cc1csc(-c2cccc(NC(=O)NCC(C)(C)C(N)=O)c2)n1`, the cytotoxicity at 70.5 h is -0.0997%.

As for `Cc1ccc(NS(=O)(=O)c2ccc(C#N)cc2)c(CN(C)C)c1`, the cytotoxicity at 70.5 h was -3.45%.

In the case of `Clc1ccccc1CNC(Cn1cncn1)c1ccccc1` (stereo not drawn), the cytotoxicity at 70.5 h turned out to be 14.7%.

For `CCOC(C)C(=O)NS(=O)(=O)c1cccc2cc(C)cnc12` (stereo not drawn), the cytotoxicity at 70.5 h came to 1.55%.

For `CC(C)(C)n1ncc2c(=O)[nH]c(N3CC(O)C3)nc21`, the cytotoxicity at 70.5 h worked out at 0.684%.

With `Cc1cn2c(CN(C)C(=O)c3ncoc3C)c(C)nc2s1`, the cytotoxicity at 70.5 h is -0.848%.

As to `Cc1cn2c(CN(C)C(=O)c3cccnc3O)c(C)nc2s1`, the cytotoxicity at 70.5 h is -4.29%.

For `COC(C)C(=O)NS(=O)(=O)c1cccc2cc(C)cnc12` (stereo not drawn), the cytotoxicity at 70.5 h is -2.88%.

In the case of `Cc1cc(C(=O)N(C)C(C)CC(C)C)on1` (stereo not drawn), the cytotoxicity at 70.5 h was -1.57%.

As to `Cc1occc1C(=O)N1CCOC2(CCCC2)C1`, the cytotoxicity at 70.5 h was -3.65%.

In the case of `FC(F)Oc1ccc(CN2CCOC3(CCOCC3)C2)cc1Cl`, the cytotoxicity at 70.5 h turned out to be 1.46%.

In the case of `Fc1cc(CN2CCOC3(CCOCC3)C2)ccc1Cl`, the cytotoxicity at 70.5 h is -1.5%.

In the case of `CCCOC1CCCN(C(=O)c2ccnc(N3CCN(C)CC3)c2)C1` (stereo not drawn), the cytotoxicity at 70.5 h was 23%.

`CC(C)(C)NC(=O)COc1ccc(Oc2ccccn2)cc1`: the cytotoxicity at 70.5 h is -6.32%.

As for `COc1ccc(Oc2ccc(CNC(=O)C3CCS(=O)(=O)C3)cn2)cc1` (stereo not drawn), the cytotoxicity at 70.5 h was -6.05%.

Take `COc1ccc(OC)c(CCC(=O)Nc2cc(C)n[nH]2)c1`: the cytotoxicity at 70.5 h was -13.4%.

As to `O=C(c1cnc(NCC2CCCO2)c(Cl)c1)N1CCCCC1` (stereo not drawn), the cytotoxicity at 70.5 h amounted to 30.2%.

`Cc1cc(C)c(CNC(=O)N2CCNC(=O)C2)c(=O)[nH]1`: the cytotoxicity at 70.5 h is -4.49%.

For `O=C(CN1CCc2cncnc2C1)N1CCc2sccc2C1`, the cytotoxicity at 70.5 h was -11%.

Take `CN(C)C1Cc2ccccc2N(S(=O)(=O)c2cccc(C#N)c2)C1` (stereo not drawn): the cytotoxicity at 70.5 h was -4.2%.

Consider `CN(C)C1Cc2ccccc2N(S(=O)(=O)c2ccc(C#N)cc2)C1` (stereo not drawn), for which the cytotoxicity at 70.5 h was -7.27%.

`COc1ccc(C)cc1CC(=O)Nc1cc(C)n[nH]1`: the cytotoxicity at 70.5 h is -8.99%.

As to `COc1cc(OC)cc(N2CCC(NCc3cccs3)C2=O)c1` (stereo not drawn), the cytotoxicity at 70.5 h was -0.0615%.

`CN(CCCNC(=O)NCc1ccncc1)CC(F)(F)F`: the cytotoxicity at 70.5 h was -8.47%.

For the molecule `CCc1nsc(N2CCOC3(CCCC3)C2)n1`, the cytotoxicity at 70.5 h is -3.55%.

Turning to `CC(C)c1cnc(CN2CCCC(c3ccn[nH]3)C2)o1` (stereo not drawn), the cytotoxicity at 70.5 h was -7.68%.

Take `CCc1ocnc1C(=O)N1CCOCC1CC(=O)c1ccccc1` (stereo not drawn): the cytotoxicity at 70.5 h is -7.1%.

With `Cc1cnn(CCNCc2cc(C)no2)c1`, the cytotoxicity at 70.5 h worked out at 2.88%.

Consider `N#Cc1cccc(CN2CCCC2c2ccc[nH]2)c1` (stereo not drawn), for which the cytotoxicity at 70.5 h was 15.2%.

On to `CCc1ccc(C2CCCN2C(=O)Cc2ccc(NC(C)=O)cc2)o1` (stereo not drawn), for which the cytotoxicity at 70.5 h was determined as 10.6%.

As for `CCN(CC)C(=O)CCCNC(=O)c1csc(NC2CC2)n1`, the cytotoxicity at 70.5 h was -9.34%.

Consider `O=C1CSCN1CC(=O)N1CCCC1c1nc2ccccc2s1` (stereo not drawn), for which the cytotoxicity at 70.5 h came out at 2.26%.

As for `CC(C)C(C)N(C)Cc1nnc(-c2ccco2)o1` (stereo not drawn), the cytotoxicity at 70.5 h is 17.4%.

In the case of `CCOC(=O)NCCC(=O)NCc1ccnc(Oc2ccc(F)cc2)c1`, the cytotoxicity at 70.5 h was -1.77%.

In the case of `CC(Cc1ccccc1F)NC(=O)CCc1nc(-c2nnc[nH]2)no1` (stereo not drawn), the cytotoxicity at 70.5 h was -4.06%.

Consider `CNC(=O)c1cccc(NC(=O)c2ccnc(N(C)C)c2)c1C`, for which the cytotoxicity at 70.5 h is -0.673%.

As to `Cc1cc(NC(=O)CNc2ccc(Br)cc2F)on1`, the cytotoxicity at 70.5 h came to 2.93%.

As for `Cn1c(C2CCCN2C(=O)CN2CCCC2=O)nc2ccccc21` (stereo not drawn), the cytotoxicity at 70.5 h was -3.63%.

Take `Cc1nc2cc(=O)[nH]n2c(C)c1CC(=O)Nc1cnn(C(C)(C)C)c1`: the cytotoxicity at 70.5 h is -3.02%.

`Cc1noc(C)c1C(=O)NCc1cc[nH]n1`: the cytotoxicity at 70.5 h stood at 11.4%.

`CCC(CC)C(=O)NCC1(NC(C)c2ccccc2)CCOCC1` (stereo not drawn): the cytotoxicity at 70.5 h amounted to 16.6%.

As for `CC1CCCN(Cc2ccc(CNC(=O)NCc3ccncc3)cc2)C1` (stereo not drawn), the cytotoxicity at 70.5 h was -5.32%.

Consider `Cc1ncc2c(n1)CN(Cc1cn3ccsc3n1)CC2`, for which the cytotoxicity at 70.5 h is -0.474%.

Regarding `COc1ccc(C(CC(=O)O)NC(=O)c2cc(C)on2)cc1` (stereo not drawn), the cytotoxicity at 70.5 h was -1.84%.

`CCC(NC(=O)NCC(=O)Nc1ccc(F)cc1)c1ccncc1` (stereo not drawn): the cytotoxicity at 70.5 h worked out at 2.31%.

As to `CCNC(=O)Cc1ccc(NC(=O)NC(CC)c2ccncc2)cc1` (stereo not drawn), the cytotoxicity at 70.5 h is -2.39%.

On to `CCOC(=O)c1nnc2ccccc2c1N1CCN(C(C)C)CC1`, for which the cytotoxicity at 70.5 h was -4.21%.

In the case of `CCOCC(=O)NCC1(NC(C)c2ccccc2)CCOCC1` (stereo not drawn), the cytotoxicity at 70.5 h is -8.52%.

As to `COc1cccc(S(=O)(=O)CCN2CCCC2c2ccc[nH]2)c1` (stereo not drawn), the cytotoxicity at 70.5 h was -16.8%.

`CC(=O)N1CCN(CCNS(=O)(=O)c2ccc(F)c(F)c2)CC1`: the cytotoxicity at 70.5 h came out at 2.27%.

Take `O=C(NCCCNC(=O)c1cccc(O)c1)Nc1ccc(Cl)cc1`: the cytotoxicity at 70.5 h is -0.328%.

In the case of `CCNC(=O)NC(=O)CNC1(c2noc(C)n2)CCCC1`, the cytotoxicity at 70.5 h turned out to be 16.6%.

On to `NC(=O)C(CNC(=O)Cc1ccsc1)Cc1ccc(F)cc1` (stereo not drawn), for which the cytotoxicity at 70.5 h was -3.39%.

For `CC(c1nc(C2CC2)no1)N1CCN(CC(=O)N2CCOCC2)CC1` (stereo not drawn), the cytotoxicity at 70.5 h worked out at 0.558%.

With `CCn1cnnc1C1CCN(C(=O)c2c(C)oc(C)c2C)CC1`, the cytotoxicity at 70.5 h amounted to 0.3%.

For `CCC(C)NC(=O)NCCC(=O)N1CCN(c2ccccn2)CC1` (stereo not drawn), the cytotoxicity at 70.5 h was -0.377%.

For the molecule `CCn1cnnc1C1CCN(C(=O)c2ccc3ccccc3n2)CC1`, the cytotoxicity at 70.5 h was -3.84%.

Turning to `CCn1cnnc1C1CCN(C(=O)c2cccc(-n3cccc3)c2)CC1`, the cytotoxicity at 70.5 h was -2.68%.

Consider `CC(C)c1nc(C(=O)N2CCOCC2CC(=O)c2ccco2)cs1` (stereo not drawn), for which the cytotoxicity at 70.5 h is -2.9%.

With `Cc1nc(CN2CCN(C(=O)c3scnc3C)CC2)cs1`, the cytotoxicity at 70.5 h is -3.33%.

With `COCCCN(CCOC)C(=O)Nc1ccccc1-n1cccn1`, the cytotoxicity at 70.5 h was 2.41%.

As for `Cc1cnc(CNC2CCc3nc(C(C)C)nn3C2)cn1` (stereo not drawn), the cytotoxicity at 70.5 h was -2.01%.

With `Cc1cccc(NC(=O)CN(C)C(=O)c2scnc2C)n1`, the cytotoxicity at 70.5 h amounted to 0.715%.

In the case of `CC(C)c1ccc(C(=O)N2CCOCC2CC(=O)c2ccco2)cn1` (stereo not drawn), the cytotoxicity at 70.5 h was -5.67%.

Consider `O=C(C1CCCC1)N1CCC2(CC1)OCCO2`, for which the cytotoxicity at 70.5 h was -1.7%.

For `CCN(CC)C(=O)CN(C)C(=O)c1ccc(-c2ccsc2)nc1C`, the cytotoxicity at 70.5 h worked out at 33.4%.

Regarding `O=C(CN1CCCCC1Cn1cncn1)Nc1ccncc1` (stereo not drawn), the cytotoxicity at 70.5 h is 3.49%.

As to `CN(Cc1cnn(C)c1)C(=O)NC1CCCC1`, the cytotoxicity at 70.5 h was -7.1%.

As for `CCOc1ncccc1NC(=O)c1cc(C)sc1C`, the cytotoxicity at 70.5 h was -11%.

With `CC(C)CC(=O)N1CCCC1c1ccsc1` (stereo not drawn), the cytotoxicity at 70.5 h is -10.6%.

Turning to `O=C(CCC(=O)N1CCCC1c1ccsc1)N1CCOCC1` (stereo not drawn), the cytotoxicity at 70.5 h was -5.51%.

As to `O=C(O)c1nnn(-c2cccc(C(F)(F)F)c2)c1C1CC1`, the cytotoxicity at 70.5 h is -3.12%.

Take `Cc1nc(CCNC(=O)Nc2cc(C(F)(F)F)c[nH]c2=O)cs1`: the cytotoxicity at 70.5 h is -6.32%.

On to `CC(C)NC(=O)c1nnn(-c2cccc(F)c2)c1C1CC1`, for which the cytotoxicity at 70.5 h is -6.18%.

For the molecule `CC(C)CN1CCC(NC(=O)c2ccc(F)cc2Cl)CC1`, the cytotoxicity at 70.5 h is -2.96%.

On to `NC(=O)COc1ccc(CNCc2ccc(Cl)c(F)c2)cc1`, for which the cytotoxicity at 70.5 h is -0.573%.

Take `Cc1nccc(CNC(=O)Nc2cc(C(F)(F)F)c[nH]c2=O)n1`: the cytotoxicity at 70.5 h is -5.34%.

Turning to `Cc1cccc(NCC(=O)Nc2cc(F)ccc2F)c1C(N)=O`, the cytotoxicity at 70.5 h is -8.06%.

On to `Cc1cc(C)n(CC2CN(CC(=O)Nc3cccnc3)CCO2)n1` (stereo not drawn), for which the cytotoxicity at 70.5 h was -4.57%.

Consider `O=C(CN1CCOC(Cn2cccn2)C1)Nc1cccnc1` (stereo not drawn), for which the cytotoxicity at 70.5 h stood at 31.9%.

As for `CCN(CC1CCOC1)C(=O)c1ccc(-c2ccsc2)nc1C` (stereo not drawn), the cytotoxicity at 70.5 h was -7.65%.

Take `CCN(CC(=O)NC(C)C)C(=O)c1ccc(-c2ccsc2)nc1C`: the cytotoxicity at 70.5 h was -3.6%.

`O=C(CN1CCCC1Cn1cncn1)Nc1ccnn1C1CCCC1` (stereo not drawn): the cytotoxicity at 70.5 h was -4.96%.

With `Fc1cccc(C2CCCN2Cc2nnnn2C2CC2)c1` (stereo not drawn), the cytotoxicity at 70.5 h was -8.46%.

With `Cc1cc(C)n(Cc2cccc(C(=O)NCCSCC(C)(C)O)c2)n1`, the cytotoxicity at 70.5 h is -3.16%.

Turning to `Cc1nc(C)n(CC2CN(CC(=O)Nc3ccncc3)CCO2)n1` (stereo not drawn), the cytotoxicity at 70.5 h is -5.56%.

With `CCc1nc(CN(C)C2CCN(Cc3nc(C4CC4)no3)C2)no1` (stereo not drawn), the cytotoxicity at 70.5 h stood at 31.8%.

Take `CCc1cnc(CN(C)C2CCN(CCCS(=O)(=O)NC)C2)o1` (stereo not drawn): the cytotoxicity at 70.5 h is 2.84%.

On to `Cc1nn(C)c(N2CCOCC2)c1CNC(c1ccccc1)C1CC1` (stereo not drawn), for which the cytotoxicity at 70.5 h worked out at 11.3%.

`CC(CN1CCOCC1)NC(=O)c1cc(Cl)c2c(c1)OCCO2` (stereo not drawn): the cytotoxicity at 70.5 h was 0.172%.

As for `Cc1ccc(NC(=O)N(CCO)Cc2ccsc2)cc1`, the cytotoxicity at 70.5 h is -0.584%.

Take `COc1ccc(C2CCCCCN2S(N)(=O)=O)cc1` (stereo not drawn): the cytotoxicity at 70.5 h came out at 23.5%.

`CCS(=O)(=O)N1CCC(Oc2ccc(C#N)cc2)CC1`: the cytotoxicity at 70.5 h was found to be 24.1%.

With `NC(=O)COc1ccc(CNCc2cc(F)ccc2F)cc1`, the cytotoxicity at 70.5 h was 32.7%.
